# From PubChem BioAssay AID1963834 (Molecular Pharmacology Branch, DTP, NCI, 2024)
# Tested on: 873145-292-R-J1-PDC complex spheroid viability
# Assay: Anticancer human tumor 873145-292-R-J1-PDC patient-derived renal clear cell carcinoma cell line growth inhibition [POLQ]
# Conditions: for IC50: curve of first compound; for viability, T/C: stronger effect = lower value
# In short: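 Growth inhibition in 3D: complex spheroids (tumor PDC, HUVEC, MSC) treated with POLQ inhibitor combinations; where Cmax unknown, highest tested concentration 10 microM, except SN-38 at 1 microM.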
# [1] = second compound 0.0316 µM, first compound 0.0316 µM
# [2] = second compound 0.0316 µM, first compound 0.1 µM
# [3] = second compound 0.0316 µM, first compound 0.316 µM
# [4] = second compound 0.0316 µM, first compound 1 µM
# [5] = second compound 0.0316 µM, first compound 3.16 µM
# [6] = second compound 0.0316 µM, first compound 10 µM
# [7] = second compound 0.1 µM, first compound 0.0316 µM
# [8] = second compound 0.1 µM, first compound 0.1 µM
# [9] = second compound 0.1 µM, first compound 0.316 µM
# [10] = second compound 0.1 µM, first compound 1 µM
# [11] = second compound 0.1 µM, first compound 3.16 µM
# [12] = second compound 0.1 µM, first compound 10 µM
# [13] = second compound 0.316 µM, first compound 0.0316 µM
# [14] = second compound 0.316 µM, first compound 0.1 µM
# [15] = second compound 0.316 µM, first compound 0.316 µM
# [16] = second compound 0.316 µM, first compound 1 µM
# [17] = second compound 0.316 µM, first compound 3.16 µM
# [18] = second compound 0.316 µM, first compound 10 µM
# [19] = second compound 1 µM, first compound 0.0316 µM
# [20] = second compound 1 µM, first compound 0.1 µM
# [21] = second compound 1 µM, first compound 0.316 µM
# [22] = second compound 1 µM, first compound 1 µM
# [23] = second compound 1 µM, first compound 3.16 µM
# [24] = second compound 1 µM, first compound 10 µM
# [25] = second compound 3.16 µM, first compound 0.0316 µM
# [26] = second compound 3.16 µM, first compound 0.1 µM
# [27] = second compound 3.16 µM, first compound 0.316 µM
# [28] = second compound 3.16 µM, first compound 1 µM
# [29] = second compound 3.16 µM, first compound 3.16 µM
# [30] = second compound 3.16 µM, first compound 10 µM
# [31] = second compound 10 µM, first compound 0.0316 µM
# [32] = second compound 10 µM, first compound 0.1 µM
# [33] = second compound 10 µM, first compound 0.316 µM
# [34] = second compound 10 µM, first compound 1 µM
# [35] = second compound 10 µM, first compound 3.16 µM
# [36] = second compound 10 µM, first compound 10 µM
# 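Note: spheroids exposed to compounds for 7 days before viability readout.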
# 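Throughout, for viability, T/C: luminescence signal used as surrogate for viable cell content; 100% = DMSO vehicle control viability.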
smiles,measurement,setting,value
CC(=O)O[C@H]1C(=O)[C@@]2(C)[C@H]([C@H](OC(=O)c3ccccc3)[C@]3(O)C[C@H](OC(=O)[C@H](O)[C@@H](NC(=O)c4ccccc4)c4ccccc4)C(C)=C1C3(C)C)[C@]1(OC(C)=O)CO[C@@H]1C[C@@H]2O + Nc1ccc(C#CCN(C(=O)Cc2ncc(C(F)(F)F)cc2C(F)(F)F)c2ccc(F)cc2)nn1,IC50,second compound 0.0316 µM,> 3 µM
same,IC50,second compound 0.1 µM,> 3 µM
same,IC50,second compound 0.316 µM,> 3 µM
same,IC50,second compound 1 µM,> 3 µM
same,IC50,second compound 3.16 µM,> 3 µM
same,IC50,second compound 10 µM,> 3 µM
same,"viability, T/C","second compound 0.0316 µM, first compound 0.00949 µM",89.1%
same,"viability, T/C","second compound 0.0316 µM, first compound 0.03 µM",85.9%
same,"viability, T/C","second compound 0.0316 µM, first compound 0.0949 µM",79.5%
same,"viability, T/C","second compound 0.0316 µM, first compound 0.3 µM",72.9%
same,"viability, T/C","second compound 0.0316 µM, first compound 0.949 µM",67.6%
same,"viability, T/C","second compound 0.0316 µM, first compound 3 µM",71.2%
same,"viability, T/C","second compound 0.1 µM, first compound 0.00949 µM",85.4%
same,"viability, T/C","second compound 0.1 µM, first compound 0.03 µM",90.2%
same,"viability, T/C","second compound 0.1 µM, first compound 0.0949 µM",71.8%
same,"viability, T/C","second compound 0.1 µM, first compound 0.3 µM",68.3%
same,"viability, T/C","second compound 0.1 µM, first compound 0.949 µM",68.8%
same,"viability, T/C","second compound 0.1 µM, first compound 3 µM",65%
same,"viability, T/C","second compound 0.316 µM, first compound 0.00949 µM",90.3%
same,"viability, T/C","second compound 0.316 µM, first compound 0.03 µM",84.6%
same,"viability, T/C","second compound 0.316 µM, first compound 0.0949 µM",68.1%
same,"viability, T/C","second compound 0.316 µM, first compound 0.3 µM",68.8%
same,"viability, T/C","second compound 0.316 µM, first compound 0.949 µM",66.9%
same,"viability, T/C","second compound 0.316 µM, first compound 3 µM",62.8%
same,"viability, T/C","second compound 1 µM, first compound 0.00949 µM",85.2%
same,"viability, T/C","second compound 1 µM, first compound 0.03 µM",71.5%
same,"viability, T/C","second compound 1 µM, first compound 0.0949 µM",72.7%
same,"viability, T/C","second compound 1 µM, first compound 0.3 µM",70.7%
same,"viability, T/C","second compound 1 µM, first compound 0.949 µM",70.7%
same,"viability, T/C","second compound 1 µM, first compound 3 µM",68.7%
same,"viability, T/C","second compound 3.16 µM, first compound 0.00949 µM",87%
same,"viability, T/C","second compound 3.16 µM, first compound 0.03 µM",73.7%
same,"viability, T/C","second compound 3.16 µM, first compound 0.0949 µM",72.3%
same,"viability, T/C","second compound 3.16 µM, first compound 0.3 µM",72.3%
same,"viability, T/C","second compound 3.16 µM, first compound 0.949 µM",71.8%
same,"viability, T/C","second compound 3.16 µM, first compound 3 µM",69%
same,"viability, T/C","second compound 10 µM, first compound 0.00949 µM",81.1%
same,"viability, T/C","second compound 10 µM, first compound 0.03 µM",75.5%
same,"viability, T/C","second compound 10 µM, first compound 0.0949 µM",74.8%
same,"viability, T/C","second compound 10 µM, first compound 0.3 µM",67.1%
same,"viability, T/C","second compound 10 µM, first compound 0.949 µM",65.7%
same,"viability, T/C","second compound 10 µM, first compound 3 µM",74%
C=CC(=O)N1CCN(c2nc(=O)n(-c3c(C)ccnc3C(C)C)c3nc(-c4c(O)cccc4F)c(F)cc23)C(C)C1 (stereo unspecified) + Cc1cccc(N(C)C(=O)C2C(O)CCN2c2nc(C)cc(C(F)(F)F)c2C#N)c1,IC50,second compound 0.0316 µM,> 10 µM
same,IC50,second compound 0.1 µM,> 10 µM
same,IC50,second compound 0.316 µM,> 10 µM
same,IC50,second compound 1 µM,> 10 µM
same,IC50,second compound 3.16 µM,> 10 µM
same,IC50,second compound 10 µM,> 10 µM
same,"viability, T/C",[1],103%
same,"viability, T/C",[2],108%
same,"viability, T/C",[3],107%
same,"viability, T/C",[4],120%
same,"viability, T/C",[5],141%
same,"viability, T/C",[6],138%
same,"viability, T/C",[7],104%
same,"viability, T/C",[8],110%
same,"viability, T/C",[9],115%
same,"viability, T/C",[10],133%
same,"viability, T/C",[11],128%
same,"viability, T/C",[12],126%
same,"viability, T/C",[13],108%
same,"viability, T/C",[14],111%
same,"viability, T/C",[15],119%
same,"viability, T/C",[16],123%
same,"viability, T/C",[17],143%
same,"viability, T/C",[18],125%
same,"viability, T/C",[19],114%
same,"viability, T/C",[20],100%
same,"viability, T/C",[21],111%
same,"viability, T/C",[22],123%
same,"viability, T/C",[23],144%
same,"viability, T/C",[24],117%
same,"viability, T/C",[25],105%
same,"viability, T/C",[26],110%
same,"viability, T/C",[27],106%
same,"viability, T/C",[28],111%
same,"viability, T/C",[29],136%
same,"viability, T/C",[30],124%
same,"viability, T/C",[31],110%
same,"viability, T/C",[32],101%
same,"viability, T/C",[33],103%
same,"viability, T/C",[34],111%
same,"viability, T/C",[35],120%
same,"viability, T/C",[36],128%
O=C(Nc1ccc(O)c(NS(=O)(=O)c2ccc(F)cc2)c1)c1ccc(-c2ccccc2)cc1 + Nc1ccc(C#CCN(C(=O)Cc2ncc(C(F)(F)F)cc2C(F)(F)F)c2ccc(F)cc2)nn1,IC50,second compound 0.0316 µM,> 10 µM
same,IC50,second compound 0.1 µM,> 10 µM
same,IC50,second compound 0.316 µM,> 10 µM
same,IC50,second compound 1 µM,> 10 µM
same,IC50,second compound 3.16 µM,> 10 µM
same,IC50,second compound 10 µM,> 10 µM
same,"viability, T/C",[1],98%
same,"viability, T/C",[2],112%
same,"viability, T/C",[3],113%
same,"viability, T/C",[4],96.3%
same,"viability, T/C",[5],110%
same,"viability, T/C",[6],102%
same,"viability, T/C",[7],113%
same,"viability, T/C",[8],113%
same,"viability, T/C",[9],95.9%
same,"viability, T/C",[10],101%
same,"viability, T/C",[11],107%
same,"viability, T/C",[12],98.9%
same,"viability, T/C",[13],102%
same,"viability, T/C",[14],113%
same,"viability, T/C",[15],114%
same,"viability, T/C",[16],108%
same,"viability, T/C",[17],113%
same,"viability, T/C",[18],98.3%
same,"viability, T/C",[19],112%
same,"viability, T/C",[20],100%
same,"viability, T/C",[21],101%
same,"viability, T/C",[22],98.2%
same,"viability, T/C",[23],100%
same,"viability, T/C",[24],105%
same,"viability, T/C",[25],113%
same,"viability, T/C",[26],103%
same,"viability, T/C",[27],109%
same,"viability, T/C",[28],106%
same,"viability, T/C",[29],98.7%
same,"viability, T/C",[30],106%
same,"viability, T/C",[31],106%
same,"viability, T/C",[32],112%
same,"viability, T/C",[33],105%
same,"viability, T/C",[34],117%
same,"viability, T/C",[35],112%
same,"viability, T/C",[36],93.9%
